Assay results: ChEMBL document CHEMBL3621166, “Synthesis, Structure-Activity Relationship, and Mechanistic Investigation of Lithocholic Acid Amphiphiles for Colon Cancer Therapy” (Medchemcomm, 2015)

Columns and labels:
[1] = Retention time of the compound by HPLC method; assay type: physicochemical
HCT-116 = test: Cytotoxicity against human HCT116 cells assessed as cell viability after 48 hrs by MTT assay; assay type: functional, cell-based; details: HCT-116, 48 h
[2] = Cytotoxicity against human DLD1 cells assessed as cell viability after 48 hrs by MTT assay; assay type: functional, cell-based; details: DLD-1, 48 h
[3] = Cytotoxicity against human HCT8 cells assessed as cell viability after 48 hrs by MTT assay; assay type: functional, cell-based; details: HCT-8, 48 h

SMILES: COC(=O)CC[C@@H](C)[C@H]1CC[C@H]2[C@@H]3CC[C@@H]4C[C@H](OC(=O)C[N+]5(C)CCCC5)CC[C@]4(C)[C@H]3CC[C@]12C.[Cl-]
- Retention_time [1]: 8.23 min
- IC50 (HCT-116): 17.8 µM
- IC50 [2]: 17 µM
- IC50 [3]: 36.4 µM

SMILES: COC(=O)CC[C@@H](C)[C@H]1CC[C@H]2[C@@H]3CC[C@@H]4C[C@H](OC(=O)C[N+]56CCN(CC5)CC6)CC[C@]4(C)[C@H]3CC[C@]12C.[Cl-]
- Retention_time [1]: 7.98 min
- IC50 (HCT-116): 60.7 µM
- IC50 [2]: 46.4 µM
- IC50 [3]: 76.4 µM

SMILES: COC(=O)CC[C@@H](C)[C@H]1CC[C@H]2[C@@H]3CC[C@@H]4C[C@H](OC(=O)C[n+]5ccccc5)CC[C@]4(C)[C@H]3CC[C@]12C.[Cl-]
- Retention_time [1]: 7.84 min
- IC50 (HCT-116): 26.5 µM
- IC50 [2]: 35.4 µM
- IC50 [3]: 35.4 µM

SMILES: COC(=O)CC[C@@H](C)[C@H]1CC[C@H]2[C@@H]3CC[C@@H]4C[C@H](OC(=O)C[N+](C)(C)C)CC[C@]4(C)[C@H]3CC[C@]12C.[Cl-]
- Retention_time [1]: 7.94 min
- IC50 (HCT-116): 38.1 µM
- IC50 [2]: 53 µM
- IC50 [3]: 37 µM

SMILES: COC(=O)CC[C@@H](C)[C@H]1CC[C@H]2[C@@H]3CC[C@@H]4C[C@H](OC(=O)CN5CCNCC5)CC[C@]4(C)[C@H]3CC[C@]12C
- IC50 (HCT-116): 102 µM
- IC50 [2]: 118 µM
- IC50 [3]: 115 µM
